“And” between values parts separate entries of the source, which are not always exact repeats. Equal entries are not always repeated. Where two headings read alike, the source gives them in different places.
Columns and labels:
[1] = Study on pharmacokinetics in rats, oral administration; type: in vivo, SD rat; details: oral 10.0 mg · kg^−1
Protocol: Sample Preparation Method: One step protein precipitation
Precipitant: ACN, with concentration of Verapamil (5.00 ng·mL-1)
Calibration Curve and QC samples Preparation: 5.00 μL each of the calibration or QC working solution and 45.0 μL of blank plasma were transferred into a 1.5-mL microcentrifuge tube. Final standard curve concentration levels were 1.00, 2.50, 5.00, 10.0, 50.0, 100, 500 and 1000 ng·mL-1. The QC concentration levels were 2.50 or 5.00, 50.0 and 800 ng·mL-1. Dilution QC was 5000 ng·mL-1.
Plasma Samples Preparation: Aliquots of 10.0 μL of real samples, calibration curve samples and QC samples were supplemented with 100 μL of precipitant. After vortexed for 3.00 min and centrifuged at 12000 rpm for 5.00 min, the supernatant 10 μL was injected for LC-MS/MS analysis.
Number of Rats/Group: 3/group
Administration Route: oral administration
Blood Collection Time: 0 min, 15 min, 30 min, 1 h, 2 h, 4 h, 6 h, 8 h, 24 h

PDE5A = molecular target: T1, PDE5A (Homo sapiens, UniProt O76074); assay: Inhibition against PDE5 (Homogenous Time Resolve Fluoresce); type: biochemical; details: HTF
T1 construct: purchased SIGMA-ALDRICH E904
Protocol: Method: IC50 of an inhibition effect on PDE5A (E904, SIGMA-ALDRICH) of test compounds was tested by using Sildenafil (S1431, selleck) as a positive control sample and the method of Homogenous Time Resolve Fluoresce, HTF (Cat. No. 62GM2PEB, Cisbio.)

PDE3A = molecular target: T2, PDE3A (Homo sapiens, UniProt Q14432); assay: Inhibition of PDE activity (assay kit); type: biochemical
T2 construct: purchased
T2 sequence (Q14432 whole entry): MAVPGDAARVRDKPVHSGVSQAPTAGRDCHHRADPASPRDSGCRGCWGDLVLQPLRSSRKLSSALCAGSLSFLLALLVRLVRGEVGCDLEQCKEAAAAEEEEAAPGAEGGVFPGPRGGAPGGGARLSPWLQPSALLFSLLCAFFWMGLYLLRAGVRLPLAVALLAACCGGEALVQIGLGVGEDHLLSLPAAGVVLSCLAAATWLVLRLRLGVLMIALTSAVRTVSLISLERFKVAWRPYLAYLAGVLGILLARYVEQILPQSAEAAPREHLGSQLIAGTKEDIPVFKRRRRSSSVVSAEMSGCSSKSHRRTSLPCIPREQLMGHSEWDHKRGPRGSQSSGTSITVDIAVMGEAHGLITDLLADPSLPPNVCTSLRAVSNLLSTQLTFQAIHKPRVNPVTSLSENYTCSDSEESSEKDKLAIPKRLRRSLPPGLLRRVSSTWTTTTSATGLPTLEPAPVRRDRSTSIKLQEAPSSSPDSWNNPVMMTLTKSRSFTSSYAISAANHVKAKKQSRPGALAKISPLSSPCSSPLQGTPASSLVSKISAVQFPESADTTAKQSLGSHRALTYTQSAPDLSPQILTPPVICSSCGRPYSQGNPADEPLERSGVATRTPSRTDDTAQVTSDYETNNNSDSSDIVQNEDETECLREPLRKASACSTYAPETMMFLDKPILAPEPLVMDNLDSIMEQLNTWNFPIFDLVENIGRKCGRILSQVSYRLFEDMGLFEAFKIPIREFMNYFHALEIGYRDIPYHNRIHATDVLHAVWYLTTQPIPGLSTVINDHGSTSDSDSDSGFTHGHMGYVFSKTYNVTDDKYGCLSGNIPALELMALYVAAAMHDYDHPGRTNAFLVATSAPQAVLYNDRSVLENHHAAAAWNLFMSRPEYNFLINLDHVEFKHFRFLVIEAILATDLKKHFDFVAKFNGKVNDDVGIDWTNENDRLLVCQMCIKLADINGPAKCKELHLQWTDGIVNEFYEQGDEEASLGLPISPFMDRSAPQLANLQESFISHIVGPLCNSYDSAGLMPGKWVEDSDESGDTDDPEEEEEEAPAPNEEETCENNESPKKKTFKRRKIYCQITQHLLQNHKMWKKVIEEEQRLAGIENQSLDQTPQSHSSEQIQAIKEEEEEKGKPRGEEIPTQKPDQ
Protocol: (§1) i. Supplement 99 μl assay buffer per well, then add 1 μl compound in DMSO dilution to wells of V96 MicroWell Plates and uniformly mix;
(§2) ii. Add 5 μl compound in assay buffer dilution to each well of 96-well microplate;
(§3) the final concentration of compound as below:
(§4) The inhibitory potential of test compounds on several types of phosphodiesterase (PDE) activity is determined according to the protocol of assay kit.

PDE2A = molecular target: T3, PDE2A (Homo sapiens, UniProt O00408); assay: Inhibition of PDE activity (assay kit); type: biochemical
T3 construct: purchased
T3 sequence (O00408 whole entry): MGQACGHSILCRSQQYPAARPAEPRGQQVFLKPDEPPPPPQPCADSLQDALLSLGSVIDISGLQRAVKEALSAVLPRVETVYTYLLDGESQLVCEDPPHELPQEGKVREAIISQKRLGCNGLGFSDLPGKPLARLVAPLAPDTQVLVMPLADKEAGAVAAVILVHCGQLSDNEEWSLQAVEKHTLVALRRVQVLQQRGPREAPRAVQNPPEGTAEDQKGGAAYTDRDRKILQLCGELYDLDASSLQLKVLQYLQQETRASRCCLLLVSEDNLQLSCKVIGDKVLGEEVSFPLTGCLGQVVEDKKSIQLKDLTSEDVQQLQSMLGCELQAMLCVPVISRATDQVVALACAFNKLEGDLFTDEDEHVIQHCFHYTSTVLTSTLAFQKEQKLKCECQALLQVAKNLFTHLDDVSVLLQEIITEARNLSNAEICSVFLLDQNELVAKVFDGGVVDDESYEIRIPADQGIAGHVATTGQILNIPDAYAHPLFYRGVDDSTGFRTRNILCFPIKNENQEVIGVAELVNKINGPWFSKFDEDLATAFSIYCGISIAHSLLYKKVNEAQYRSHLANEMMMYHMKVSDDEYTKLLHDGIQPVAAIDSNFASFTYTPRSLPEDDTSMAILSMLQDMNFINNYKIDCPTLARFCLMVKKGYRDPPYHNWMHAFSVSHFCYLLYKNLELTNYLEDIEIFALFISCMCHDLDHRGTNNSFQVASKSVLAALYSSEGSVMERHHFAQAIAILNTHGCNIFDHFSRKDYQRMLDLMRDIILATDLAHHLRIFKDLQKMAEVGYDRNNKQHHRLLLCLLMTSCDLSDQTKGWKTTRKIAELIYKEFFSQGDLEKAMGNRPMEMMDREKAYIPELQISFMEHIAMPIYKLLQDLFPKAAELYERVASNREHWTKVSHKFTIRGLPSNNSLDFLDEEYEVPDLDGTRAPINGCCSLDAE
Protocol: as §1, §2, §3, §4

PDE7A = molecular target: T4, PDE7A (Homo sapiens, UniProt Q13946); assay: Inhibition of PDE activity (assay kit); type: biochemical
T4 construct: purchased
T4 sequence (Q13946 whole entry): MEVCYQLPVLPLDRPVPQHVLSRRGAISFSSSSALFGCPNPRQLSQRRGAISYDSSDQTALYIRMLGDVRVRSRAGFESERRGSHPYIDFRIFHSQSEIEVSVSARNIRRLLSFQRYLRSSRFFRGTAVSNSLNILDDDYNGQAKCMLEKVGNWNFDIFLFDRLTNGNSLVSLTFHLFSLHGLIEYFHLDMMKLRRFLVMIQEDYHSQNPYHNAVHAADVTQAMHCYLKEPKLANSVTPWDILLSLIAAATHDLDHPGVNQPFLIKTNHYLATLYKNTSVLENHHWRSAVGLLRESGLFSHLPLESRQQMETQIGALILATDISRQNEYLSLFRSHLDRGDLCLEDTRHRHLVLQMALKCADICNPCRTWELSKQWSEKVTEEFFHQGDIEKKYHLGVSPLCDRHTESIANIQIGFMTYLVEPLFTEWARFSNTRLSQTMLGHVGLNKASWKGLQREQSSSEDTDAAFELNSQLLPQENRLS
Protocol: as §1, §2, §3, §4

PDE1A = molecular target: T5, PDE1A (Homo sapiens, UniProt P54750); assay: Inhibition of PDE activity (assay kit); type: biochemical
T5 construct: purchased
T5 sequence (P54750 whole entry): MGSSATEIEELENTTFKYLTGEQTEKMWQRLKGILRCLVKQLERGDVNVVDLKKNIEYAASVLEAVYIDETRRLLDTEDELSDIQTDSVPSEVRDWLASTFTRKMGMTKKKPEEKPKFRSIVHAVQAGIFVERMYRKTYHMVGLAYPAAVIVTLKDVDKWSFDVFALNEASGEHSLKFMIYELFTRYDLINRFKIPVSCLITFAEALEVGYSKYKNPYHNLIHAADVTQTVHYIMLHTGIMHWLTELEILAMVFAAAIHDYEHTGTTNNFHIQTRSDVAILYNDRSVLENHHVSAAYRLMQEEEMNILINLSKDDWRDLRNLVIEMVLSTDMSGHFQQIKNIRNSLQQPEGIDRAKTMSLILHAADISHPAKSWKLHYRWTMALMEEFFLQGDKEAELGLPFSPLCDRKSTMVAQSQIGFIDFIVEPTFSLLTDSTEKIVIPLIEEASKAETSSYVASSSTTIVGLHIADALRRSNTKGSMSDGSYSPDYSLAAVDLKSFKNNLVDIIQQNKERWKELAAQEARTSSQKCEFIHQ
Protocol: as §1, §2, §3, §4

normal rat = assay: Erectile function of normal rat: blood pressure, intracavernous pressure and detumescence time on cavernous nerve stimulation; type: in vivo; details: reference group (Calais), dose not stated
Protocol: Rats were anesthetized with 2% pentobarbital […], then incision was made in the right side of neck, a PE-50 silicon tube connected with a pressure transducer was inserted into the carotid artery, to record the change of the blood pressure.
The erectile activity was induced by a bipolar stainless-steel, stimulus parameters at a pulse width of […], stimulation frequency of 7.98 Hz, current of 3 mA, stimulation duration of 40 s, and then record the intracavernous pressure (ICP).
Assessment of erectile function: ICP, BP, change of ICP and detumescence time were monitored though electric cavernous nerve stimulation at 2, 6 and 24 hours post dosing. Erectile function was evaluated by change of ICP and detumescence time.

[2] = background statement; cited from earlier work
[3] = SD, rat, plasma, po, 10 mg/kg, Mean of 3 rats
[4] = SD, rat, plasma, po, 10 mg/kg, Mean of 3 rats, read-out: AUC0-inf
[5] = SD, rat, plasma, po, 10 mg/kg, Mean of 3 rats, read-out: AUC0-t
[6] = SD, rat, plasma, po, 10 mg/kg, Mean of 3 rats, read-out: Cmax
[7] = SD, rat, plasma, po, 10 mg/kg, individual rats
[8] = SD, rat, plasma, po, 10 mg/kg, individual rats, read-out: AUC0-inf
[9] = SD, rat, plasma, po, 10 mg/kg, individual rats, read-out: AUC0-t
[10] = SD, rat, plasma, individual rats

## NN1CC(=O)N2[C@H](c3ccc4c(c3)OCO4)c3[nH]c4ccccc4c3C[C@@H]2C1=O [DDCI02]
[1]; Mean of 3 rats
  AUMC0-inf: 69719 h · h · ng · mL^−1
  AUMC0-t: 63864 h · h · ng · mL^−1
  Kel: 0.193 h⁻¹
  MRTPO: 4.19 h
[1]; [3]
  half-life: 3.73 h
[1]; [4]
  AUC0-inf: 16300 ng·h/mL
[1]; [5]
  AUC0-t: 16100 ng·h/mL
[1]; [6]
  Cmax: 4680 ng/mL
[1]; [7]
  half-life: 4.85 h
[1]; [8]
  AUC0-inf: 18600 ng·h/mL
[1]; [9]
  AUC0-t: 18100 ng·h/mL
[1]; SD, rat, plasma, po, 10 mg/kg, individual rats, read-out: Cmax
  Cmax: 4580 ng/mL
[1]; [10]
  Tmax: 0.25 h
[1]; individual rats
  AUC0-inf: 15617 ng·h/mL and 14794 ng·h/mL
  AUC0-t: 15563 ng·h/mL and 14723 ng·h/mL
  AUMC0-inf: 99393 h · h · ng · mL^−1 and 57718 h · h · ng · mL^−1 and 52047 h · h · ng · mL^−1
  AUMC0-t: 85428 h · h · ng · mL^−1 and 56156 h · h · ng · mL^−1 and 50008 h · h · ng · mL^−1
  Cmax: 4288 ng/mL and 5171 ng/mL
  Kel: 0.143 h⁻¹ and 0.221 h⁻¹ and 0.216 h⁻¹
  MRTPO: 5.35 h and 3.70 h and 3.52 h
  t1/2: 3.14 h and 3.21 h
PDE5A
  IC50: 0.566 µM

## CN1CC(=O)N2[C@H](c3ccc4c(c3)OCO4)c3[nH]c4ccccc4c3C[C@@H]2C1=O [Cialis]
PDE3A
  IC50: > 10 µM
PDE2A
  IC50: > 10 µM
PDE7A
  IC50: > 10 µM
PDE1A
  IC50: > 10 µM
[1]; Mean of 3 rats
  AUMC0-inf: 54240 h · h · ng · mL^−1
  AUMC0-t: 52702 h · h · ng · mL^−1
  Kel: 0.248 h⁻¹
  MRTPO: 6.07 h
[1]; [3]
  half-life: 2.99 h
[1]; [4]
  AUC0-inf: 8860 ng·h/mL
[1]; [5]
  AUC0-t: 8810 ng·h/mL
[1]; [6]
  Cmax: 926 ng/mL
[1]; [7]
  half-life: 3.46 h
[1]; [8]
  AUC0-inf: 8810 ng·h/mL
[1]; [9]
  AUC0-t: 8720 ng·h/mL
[1]; [10]
  Tmax: 4 h
[1]; individual rats
  AUC0-inf: 6051 ng·h/mL and 11729 ng·h/mL
  AUC0-t: 5993 ng·h/mL and 11723 ng·h/mL
  AUMC0-inf: 56364 h · h · ng · mL^−1 and 34440 h · h · ng · mL^−1 and 71915 h · h · ng · mL^−1
  AUMC0-t: 53611 h · h · ng · mL^−1 and 32747 h · h · ng · mL^−1 and 71748 h · h · ng · mL^−1
  Cmax: 747 ng/mL and 676 ng/mL and 1356 ng/mL
  Kel: 0.200 h⁻¹ and 0.197 h⁻¹ and 0.346 h⁻¹
  MRTPO: 6.40 h and 5.69 h and 6.13 h
  t1/2: 3.51 h and 2.00 h
Normal rat; 2 hours after dosing
  BP after stimulation: 64.14 ± 9.86 mmHg
  BP before stimulation: 100.98 ± 4.48 mmHg
  Change of BP: 36.85 ± 7.34 mmHg
  Change of ICP: 31.82 ± 7.63 mmHg
  Detumescence Time: 40.50 ± 21.14 s
  ICP after stimulation: 39.19 ± 8.58 mmHg
  ICP before stimulation: 7.38 ± 1.75 mmHg
Normal rat; 6 hours after dosing
  BP after stimulation: 58.14 ± 14.30 mmHg
  BP before stimulation: 91.20 ± 28.48 mmHg
  Change of BP: 33.07 ± 17.13 mmHg
  Change of ICP: 34.15 ± 6.99 mmHg
  Detumescence Time: 44.25 ± 13.35 s
  ICP after stimulation: 41.76 ± 6.49 mmHg
  ICP before stimulation: 7.61 ± 1.53 mmHg
Normal rat; 24 hours after dosing
  BP after stimulation: 78.00 ± 2.68 mmHg
  Change of BP: 34.26 ± 7.18 mmHg
  Change of ICP: 35.38 ± 4.55 mmHg
  Detumescence Time: 41.25 ± 10.34 s
  ICP after stimulation: 43.01 ± 6.19 mmHg
  ICP before stimulation: 7.63 ± 4.03 mmHg
[2]
  half-life in body: 24 to 36 h

Source: US9920057B2, “Substituted pyrazino[1′,2′:1 ,6]pyrido[3,4-b]indoles as phosphodiesterase type 5 inhibitors” (Chongqing University of Arts and Sciences, priority 2015, dated 2018)
